Where a name gives a salt, the structure may show the parent alone. Read-outs that look alike come from different tables or passages of the source. Non-standard residues stand in square brackets, D forms with d. Residues, ends and D or L forms follow the SMILES beside them. pGlu = O=C1CC[C@@H](C(=O)O)N1; Thz = O=C(O)[C@@H]1CSCN1
What was measured:
Assay type in all cases: biochemical
recombinant PRL-1 = target: T1, recombinant PRL-1 (Homo sapiens, UniProt Q93096); assay: In vitro phosphatase assay (DiFMUP hydrolysis), PRL-1; further: test concentration or dose not given here
T1 construct: 6xHis (N, cleaved yes); made in house; host or cells: E. coli One Shot BL21 Star
T1 sequence (Q93096 1-173): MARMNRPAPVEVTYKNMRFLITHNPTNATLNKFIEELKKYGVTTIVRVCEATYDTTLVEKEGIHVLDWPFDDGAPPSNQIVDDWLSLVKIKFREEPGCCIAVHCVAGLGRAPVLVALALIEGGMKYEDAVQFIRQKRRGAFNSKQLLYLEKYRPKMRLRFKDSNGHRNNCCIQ

recombinant PRL-2 = target: T2, recombinant PRL-2 (Homo sapiens, UniProt Q12974); assay: In vitro phosphatase assay (DiFMUP hydrolysis), PRL-2;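 further: PRL-2 activity read as DiFMUP hydrolysis after 20 min at room temperature with drug, enzyme first pre-reduced at 4 °C for 20 min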
T2 construct: 6xHis (N, cleaved yes); made in house; host or cells: E. coli One Shot BL21 Star
T2 sequence (Q12974 1-167): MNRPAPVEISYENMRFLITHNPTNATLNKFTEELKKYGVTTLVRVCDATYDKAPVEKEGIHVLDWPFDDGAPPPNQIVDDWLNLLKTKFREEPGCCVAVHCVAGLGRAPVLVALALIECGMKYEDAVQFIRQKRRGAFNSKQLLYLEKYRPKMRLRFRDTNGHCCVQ

recombinant PRL-3 = target: T3, recombinant PRL-3 (Homo sapiens, UniProt O75365); assay: In vitro phosphatase assay (DiFMUP hydrolysis), PRL-3; further: test concentration or dose not given here
T3 construct: 6xHis (N, cleaved yes); made in house; host or cells: E. coli One Shot BL21 Star
T3 sequence (O75365 whole entry): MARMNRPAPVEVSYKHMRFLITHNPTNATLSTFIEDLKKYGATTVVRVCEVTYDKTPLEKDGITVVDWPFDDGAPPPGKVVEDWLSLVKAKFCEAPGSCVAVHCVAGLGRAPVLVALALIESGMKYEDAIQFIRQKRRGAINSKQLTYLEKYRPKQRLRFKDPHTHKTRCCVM

[1] = FDA-approved drug screen, compared to DMSO
[2] = FDA-approved drug screen, activity compared to DMSO

| SMILES | % Phosphatase Activity (compared to DMSO) PRL-1 (recombinant PRL-1; [1]) [%] | % Phosphatase Activity (compared to DMSO) PRL-2 (recombinant PRL-2; [1]) [%] | % Phosphatase Activity (compared to DMSO) PRL-3 (recombinant PRL-3; [1]) [%] | also measured |
| --- | --- | --- | --- | --- |
| COc1ccc(C[C@H](N)C(=O)N[C@H]2[C@@H](O)[C@H](n3cnc4c(N(C)C)ncnc43)O[C@@H]2CO)cc1.Cl.Cl [Puromycin 2HCl] | 106 | 101 | 113 | – |
| Cl.N=C(N)N [Guanidine HCl] | 103 | 108 | 86 | – |
| COc1ccc2cc(CCC(C)=O)ccc2c1 [Nabumetone] | 91 | 102 | 68 | – |
| O=C(O)CCC(=O)Nc1ccc(S(=O)(=O)Nc2nccs2)cc1 [Succinylsulfathiazole] | – | – | – | % Phosphatase Activity (compared to DMSO) PRL-1 (recombinant PRL-1; [2]): 85%; % Phosphatase Activity (compared to DMSO) PRL-2 (recombinant PRL-2; [2]): 97%; % Phosphatase Activity (compared to DMSO) PRL-3 (recombinant PRL-3; [2]): 85% |
| Cn1nnc2c(C(N)=O)ncn2c1=O [Temozolomide] | – | – | – | % Phosphatase Activity (compared to DMSO) PRL-1 (recombinant PRL-1; [2]): 87%; % Phosphatase Activity (compared to DMSO) PRL-2 (recombinant PRL-2; [2]): 94%; % Phosphatase Activity (compared to DMSO) PRL-3 (recombinant PRL-3; [2]): 65% |
| N=C(N)NC(=O)c1nc(Cl)c(N)nc1N [Amiloride HCl] | 234 | 300 | 230 | – |
| CCOc1ccc2ccccc2c1C(=O)N[C@@H]1C(=O)N2[C@@H]1SC(C)(C)[C@@H]2C(=O)O [Nafcillin Sodium] | 98 | 108 | 60 | – |
| Cc1c(C(=O)NN2CCCCC2)nn(-c2ccc(Cl)cc2Cl)c1-c1ccc(Cl)cc1 [Rimonabant] | 103 | 116 | 98 | – |
| COc1ccc2c(c1OC)C(=O)O[C@@H]2[C@H]1c2c(cc3c(c2OC)OCO3)CCN1C [Noscapine HCl] | 92 | 116 | 103 | – |
| CCCC(CCC)C(=O)O[C@H]1C[C@H]2CC[C@@H](C1)[N+]2(C)C [Anisotropine Methylbromide] | 111 | 108 | 77 | – |
| CC(C(=O)O)c1ccc2c(c1)CC(=O)c1ccccc1S2 (stereo not drawn) [Zaltoprofen] | – | – | – | % Phosphatase Activity (compared to DMSO) PRL-1 (recombinant PRL-1; [2]): 109%; % Phosphatase Activity (compared to DMSO) PRL-2 (recombinant PRL-2; [2]): 113%; % Phosphatase Activity (compared to DMSO) PRL-3 (recombinant PRL-3; [2]): 86% |
| O=C1CC[C@@H](C(=O)N2CSC[C@H]2C(=O)O)N1 [Pidotimod] ([pGlu]-[Thz]-OH) | 113 | 103 | 83 | – |
| OCc1ccccc1 [Benzyl alcohol] | 94 | 91 | 82 | – |
| N=C(N)N/N=C/c1c(Cl)cccc1Cl [Guanabenz Acetate] | 94 | 108 | 68 | – |
| CC(C)NC[C@@H](O)COc1ccc(CC(N)=O)cc1 [(R)-(+)-Atenolol] | 113 | 109 | 74 | – |
| CCCSc1nc(N[C@@H]2C[C@H]2c2ccc(F)c(F)c2)c2nnn([C@@H]3C[C@H](OCCO)[C@@H](O)[C@H]3O)c2n1 [Ticagrelor] | – | – | – | % Phosphatase Activity (compared to DMSO) PRL-1 (recombinant PRL-1; [2]): 97%; % Phosphatase Activity (compared to DMSO) PRL-2 (recombinant PRL-2; [2]): 94%; % Phosphatase Activity (compared to DMSO) PRL-3 (recombinant PRL-3; [2]): 85% |

| SMILES | % Phosphatase Activity (compared to DMSO) PRL-1 (recombinant PRL-1; [1]) [%] | % Phosphatase Activity (compared to DMSO) PRL-2 (recombinant PRL-2; [1]) [%] | % Phosphatase Activity (compared to DMSO) PRL-3 (recombinant PRL-3; [1]) [%] | also measured |
| --- | --- | --- | --- | --- |
| CS(=O)(=O)Nc1ccc([N+](=O)[O-])cc1Oc1ccccc1 [Nimesulide] | – | – | – | % Phosphatase Activity (compared to DMSO) PRL-1 (recombinant PRL-1): 78%; % Phosphatase Activity (compared to DMSO) PRL-2 (recombinant PRL-2): 83%; % Phosphatase Activity (compared to DMSO) PRL-3 (recombinant PRL-3): 85% |
| C=C[C@]1(C)C[C@@H](OC(=O)CSC(C)(C)CNC(=O)[C@H](N)C(C)C)[C@]2(C)[C@H](C)CC[C@]3(CCC(=O)[C@H]32)[C@@H](C)[C@@H]1O.Cl [Valnemulin HCl] | – | – | – | % Phosphatase Activity (compared to DMSO) PRL-1 (recombinant PRL-1; [2]): 86%; % Phosphatase Activity (compared to DMSO) PRL-2 (recombinant PRL-2; [2]): 95%; % Phosphatase Activity (compared to DMSO) PRL-3 (recombinant PRL-3; [2]): 80% |
| CC(C)[C@H](O)C(=O)N[C@@H](C)C(=O)N[C@@H]1C(=O)N(C)CCc2ccccc21 [Semagacestat (LY450139)] | 104 | 120 | 86 | – |
| C[C@@](Cc1ccc(O)c(O)c1)(NN)C(=O)O [Carbidopa] | 68 | 92 | 94 | – |
| CC(C)c1cc(-c2n[nH]c(=O)n2-c2ccc3c(ccn3C)c2)c(O)cc1O [Ganetespib (STA-9090)] | 91 | 97 | 89 | – |
| CCCCc1nc2cc(/C=C/C(=O)NO)ccc2n1CCN(CC)CC [Pracinostat (SB939)] | 96 | 87 | 80 | – |
| CCOC(=O)[C@H](CCc1ccccc1)N[C@H]1CCCN2CCC[C@@H](C(=O)O)N2C1=O [Cilazapril Monohydrate] | 91 | 111 | 73 | – |
| Cc1cn([C@@H]2C[C@@H](O)[C@H](CO)O2)c(=O)[nH]c1=O [Telbivudine] | – | – | – | % Phosphatase Activity (compared to DMSO) PRL-1 (recombinant PRL-1; [2]): 106%; % Phosphatase Activity (compared to DMSO) PRL-2 (recombinant PRL-2; [2]): 89%; % Phosphatase Activity (compared to DMSO) PRL-3 (recombinant PRL-3; [2]): 80% |
| CN(C)CCC(c1ccc(Br)cc1)c1ccccn1.O=C(O)/C=C\C(=O)O (stereo not drawn) [Brompheniramine hydrogen maleate] | 108 | 107 | 78 | – |
| CN[C@H]1C[C@@H](N)[C@H](O)[C@@H](O[C@@H]2O[C@H](CO)[C@H](O)[C@@H]3OC4(O[C@H]23)O[C@H]([C@@H](N)CO)[C@H](O)[C@H](O)[C@H]4O)[C@@H]1O (stereo partly drawn) [Hygromycin B] | 91 | 98 | 103 | – |
| Cn1c(=O)cc(N2CCC[C@@H](N)C2)n(Cc2ccccc2C#N)c1=O [Alogliptin] | 112 | 123 | 96 | – |
| Oc1ccc(O)cc1 [Hydroquinone] | – | – | – | % Phosphatase Activity (compared to DMSO) PRL-1 (recombinant PRL-1): 90%; % Phosphatase Activity (compared to DMSO) PRL-2 (recombinant PRL-2): 91%; % Phosphatase Activity (compared to DMSO) PRL-3 (recombinant PRL-3): 70% |
| COc1cc2nc(N(C)CCCNC(=O)C3CCCO3)nc(N)c2cc1OC (stereo not drawn) [Alfuzosin HCl] | 590 | 536 | 290 | – |
| COc1ccc(C(CN(C)C)C2(O)CCCCC2)cc1 (stereo not drawn) [Venlafaxine] | – | – | – | % Phosphatase Activity (compared to DMSO) PRL-1 (recombinant PRL-1; [2]): 97%; % Phosphatase Activity (compared to DMSO) PRL-2 (recombinant PRL-2; [2]): 100%; % Phosphatase Activity (compared to DMSO) PRL-3 (recombinant PRL-3; [2]): 84% |
| CC(C)[N+]1(C)[C@@H]2CC[C@H]1C[C@@H](OC(=O)C(CO)c1ccccc1)C2 (stereo partly drawn) [Ipratropium Bromide] | 103 | 93 | 83 | – |

— PMC8119466, “A screen of FDA-approved drugs identifies inhibitors of protein tyrosine phosphatase 4A3 (PTP4A3 or PRL-3)” (Scientific Reports, 2021)
